Patent US7998965B2, “Glutamate aggrecanase inhibitors” (Wyeth LLC, priority 2005, dated 2011)
Converted amounts (≈) assume the structure as drawn.

Assays:
[1] = tested on: Aggrecanase-mediated aggrecan cleavage in human OA cartilage explants; assay: Human osteoarthritic cartilage explant efficacy study (BC3 western analysis); format: cell-based
Excerpt: Human OA Cartilage Explant Culture: Discarded tissues from consented knee replacement patients were obtained from New England Baptist Hospital (Brookline, Mass.) in sterile phosphate buffered saline (PBS) after about 2-4 hrs post surgery. Cartilage slices were harvested from the knee specimens and washed several times in PBS. These cartilage slices were cut into appropriate pieces (6-8 mm) and rinsed in PBS and then in media and further cultured for additional days as cartilage explants. The medium consisted of Dulbecco's Modified Eagle's medium (DMEM, JRH Biosciences, Lenexa, Kans.), 50 μg/ml ascorbic acid (Wako, Osaka, Japan), 10 mM HEPES, pH 7.0 (Mediatech, Herndon, Va.), 2 mM L-glutamine (Mediatech), 100 U/ml antibiotic-antimycotic solution (Mediatech).
Test compounds: The test compounds are described in Examples 8OO, 8NNNNNNN, and 8WWWWWWW. Stock solutions of the compounds were prepared at 1 mg/ml in DMSO, aliquoted and stored at −20° C. Working solutions of the compounds were made in DMSO and added to the culture for efficacy studies.
Efficacy study: Cartilage explants were cultured for 2-3 days in DMEM medium in a 37° C. and 5% CO2 environment to equilibrate the tissue. Explants were weighed (˜250 mg) and placed in wells of a 24-well culture dish in 1 ml of medium and 3 replicates per treatment group. For the efficacy study, cartilage explants were cultured for 6 days in the presence or absence of various concentrations of the test compound. The media was replaced on day 3 and the experiment was terminated on day 6. Total aggrecan content of conditioned media was measured by a colorimetric assay with DMMB (Farndale, R W et al., Biochim Biophys Acta. 1986, 883, 173-177).
Western analysis: Aggrecan fragments in conditioned medium were analyzed by western analysis using neoepitope antibody, BC-3 designed to recognize the Aggrecanase-generated N-terminal interglobular neoepitope ^374ARGS. Equal cartilage weight equivalent conditioned media from each replicate well per treatment group was pooled and digested with Chondroitinase ABC (Sigma, St Louis, Mo.), Keratinase I (Seikagaku America, Falmouth, Mass.) and Keratinase II (Seikagaku America, Falmouth, Mass.) for 2 h at 37° C. Samples were concentrated by YM-10 centrifugal filter device (Millipore Corp., Bedford, Mass.), lyophilized and reconstituted with equal volume of water. Samples were separated under reducing conditions on 4-12% gradient Tris-glycine gels (Invitrogen, Carlsbad, Calif.). Proteins from the gels were transferred to nitrocellulose membranes. Immunoblots were probed using Mab BC-3 (Abcam, Cambridge, Mass.). Incubation with primary and alkaline-phosphatase-conjugated secondary goat anti-mouse IgG (Promega Corp., Madison, Wis.) was performed overnight at 4° C. and at room temperature for 1 h, respectively. The immunoblots were incubated with NBT/BCIP substrate (Promega Corp., Madison, Wis.) at room temperature to achieve optimum color development. The aggrecan fragments containing the ARGS neoepitope were quantitated by densitometry analysis and the percentage inhibition of aggrecan degradation by test compounds was determined.

[2] = biological target: T1, purified recombinant human Aggrecanase-1 (rAgg1) (Homo sapiens, UniProt O75173); assay: In vitro fluorescence screen for Aggrecanase-1 inhibitors; format: biochemical; conditions: Table 1
T1 sequence (O75173 213-837): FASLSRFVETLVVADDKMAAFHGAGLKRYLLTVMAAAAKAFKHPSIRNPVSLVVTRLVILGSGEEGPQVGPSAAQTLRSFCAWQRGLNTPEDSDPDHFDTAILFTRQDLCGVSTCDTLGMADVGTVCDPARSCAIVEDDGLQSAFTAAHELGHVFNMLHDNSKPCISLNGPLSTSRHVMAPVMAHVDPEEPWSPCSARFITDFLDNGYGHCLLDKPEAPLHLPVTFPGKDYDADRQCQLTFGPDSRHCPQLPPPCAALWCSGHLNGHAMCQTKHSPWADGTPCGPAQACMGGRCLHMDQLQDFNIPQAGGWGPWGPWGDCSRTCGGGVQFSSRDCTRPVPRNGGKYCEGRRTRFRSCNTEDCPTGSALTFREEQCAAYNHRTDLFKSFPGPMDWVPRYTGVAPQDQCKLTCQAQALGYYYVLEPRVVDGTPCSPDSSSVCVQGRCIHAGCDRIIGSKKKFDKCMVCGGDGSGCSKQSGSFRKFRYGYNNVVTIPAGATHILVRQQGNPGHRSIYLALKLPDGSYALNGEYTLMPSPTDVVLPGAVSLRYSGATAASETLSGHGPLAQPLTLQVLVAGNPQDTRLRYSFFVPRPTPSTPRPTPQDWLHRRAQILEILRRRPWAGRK

[3] = biological target: T2, MMP-1 (Homo sapiens, UniProt P03956); assay: MMP-1 of Table 1; format: biochemical; conditions: unit inferred
T2 sequence (P03956 100-469): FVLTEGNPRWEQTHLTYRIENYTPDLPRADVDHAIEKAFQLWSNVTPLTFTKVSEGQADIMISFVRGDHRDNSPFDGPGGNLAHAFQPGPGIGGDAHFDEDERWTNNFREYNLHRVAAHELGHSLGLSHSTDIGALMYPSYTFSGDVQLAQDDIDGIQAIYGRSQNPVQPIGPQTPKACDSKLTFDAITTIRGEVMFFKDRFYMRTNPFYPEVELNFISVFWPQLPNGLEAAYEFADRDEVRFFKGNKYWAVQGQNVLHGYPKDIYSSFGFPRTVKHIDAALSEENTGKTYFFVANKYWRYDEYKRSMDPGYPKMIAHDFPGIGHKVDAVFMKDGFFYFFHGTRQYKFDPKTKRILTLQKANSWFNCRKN

[4] = biological target: T3, recombinant human catalytic domain of MMP-13 (Homo sapiens, UniProt P45452); assay: In vitro fluorescence assay of MMP-13 activity; format: biochemical; conditions: Table 1; unit inferred
T3 construct: catalytic domain of MMP-13 (165 amino acids, residues 104-268, 19 kDa)

Ki ([2]; enzyme not given, column follows Agg1 IC50, read-out: Ki): 6 nM
IC50 ([2]; read-out: Agg1 IC50): < 30 nM
IC50 [3]: > 200 µM
IC50 [4]: > 50 µM
SMILES: CC(C)(Cc1ccc(F)cc1)NC(=O)[C@H](CCC(=O)O)NC(=O)c1ccc(-c2ccccc2)cc1 [Example 8OO, N^2-(1,1′-biphenyl-4-ylcarbonyl)-N^1-[2-(4-fluorophenyl)-1,1-dimethylethyl]-L-α-glutamine]
EC50 ([1]; 144 h, human OA cartilage explants, 6 days, BC3 analysis, read-out: EC50 (inhibition of aggrecanase generated aggrecan fragments)): ~0.15 µg/mL (≈ 0.315 µM)
inhibition at 0.02 µg/mL ([1]; Homo sapiens, 0.02 ug/ml, average of 15 donors, read-out: % inhibition (BC3 analysis)): 8.52%
inhibition at 0.04 µg/mL ([1]; Homo sapiens, 0.04 ug/ml, average of 15 donors, read-out: % inhibition (BC3 analysis)): 26.2%
inhibition at 0.08 µg/mL ([1]; Homo sapiens, 0.08 ug/ml, average of 15 donors, read-out: % inhibition (BC3 analysis)): 42.9%
inhibition at 0.15 µg/mL ([1]; Homo sapiens, 0.15 ug/ml, average of 15 donors, read-out: % inhibition (BC3 analysis)): 49%
inhibition at 0.3 µg/mL ([1]; Homo sapiens, 0.3 ug/ml, average of 15 donors, read-out: % inhibition (BC3 analysis)): 56.4%
inhibition at 0.6 µg/mL ([1]; Homo sapiens, 0.6 ug/ml, average of 15 donors, read-out: % inhibition (BC3 analysis)): 73.9%
inhibition at 1.25 µg/mL ([1]; Homo sapiens, 1.25 ug/ml, average of 15 donors, read-out: % inhibition (BC3 analysis)): 83.4%
inhibition at 2.5 µg/mL ([1]; Homo sapiens, 2.5 ug/ml, average of 15 donors): 101%
inhibition at 5 µg/mL ([1]; Homo sapiens, 5 ug/ml, average of 15 donors): 98.9%
inhibition at 10 µg/mL ([1]; Homo sapiens, 10 ug/ml, average of 15 donors): 102%
